Measurements taken from US20060270677A1, “Method for the treatment of noise phobia in companion animals” (Wyeth, priority 2005, published 2006).

Experiment: in vivo
Conditions: male, Beagle, dog, po
Text: In this evaluation 8 male Beagle breed dogs, 6 months to 2 years of age, and at least 10 kg in weight were used. Dogs were housed in individual indoor cages in compliance with standards outlined in the Guide for the Care and Use of Laboratory Animals of the Institute of Laboratory Animal resources, National Research Council. The dogs were fed an appropriate amount of standard commercial dry ration once per day. Fresh tap water in water bowls was provided ad libitum. On the day before the test compounds were administered, food was removed from the dogs by 4:00 pm. Food was withheld until after taking blood samples at the 4 h time point after administration of test materials. Dogs were weighed and ranked by descending weight order and were given physical exams by a veterinarian. The two heaviest dogs were randomly assigned to Group 1 or 2. The second two heaviest dogs were randomly assigned to Group 1 or 2 and so on, until all 8 dogs were placed into either of the two groups. Group 1 with 4 dogs/group, was treated orally with 15 mg/kg of the acetamide test compound and Group 2 was treated orally with 15 mg/kg of the carbonitrile test compound. One week after treatment all dogs were reweighed to ensure correct dosing. Two weeks after treatment, Group 1 was treated orally with 30 mg/kg of the acetamide test compound and Group 2 was treated orally with 30 mg/kg of the carbonitrile test compound. A treatment vial containing an appropriate amount of test compound was provided for each dog. The appropriate amount of vehicle (water containing 0.5% Methocel A4M and 0.01% polysorbate 80) was added to the vial and the contents of the vial were thoroughly mixed. The resultant suspension was withdrawn with an unarmed disposable 12 ml plastic syringe and administered to the dog. Test suspensions were administered to the back of the throat to ensure that they were reliably and completely swallowed by the dog. The vials were rinsed with 0.5 ml vehicle per kg of body weight and the rinsate was administered to the dog. Blood samples were collected at regular time intervals and analyzed for concentration of test compound. The Cmax value (the maximum compound concentration in the plasma) and the Tmax value (the time, after dosing, at which the peak compound concentration was obtained) were determined by observation. For Table I, the term “Acetamide” designates N-methyl-N-[3-(3-methyl-1,2,4-triazolo-[4,3-b]pyridazin-6-yl)phenyl]acetamide; and the term “Carbonitrile” designates 7-(3-pyridyl)pyrazolo[1,5-a]pyrimidine-3-carbonitrile.

Cmax (15 mg/kg): 3700 ng/mL
Tmax (15 mg/kg): 4.25 h
Cmax (30 mg/kg): 6390 ng/mL
Tmax (30 mg/kg): 8.25 h
SMILES: N#Cc1cnn2c(-c3cccnc3)ccnc12 [Carbonitrile, 7-(3-pyridyl)pyrazolo[1,5-a]pyrimidine-3-carbonitrile]
